Usually IC50 stands for the concentration needed to halve the response being measured.

Activity calls are given as the source filed them. The rule behind the calls is not given here. Where only a bound is given, the exact number is not on record here.

This test addresses X-box-binding protein 1 (Homo sapiens) (UniProt P17861). In words: XBP1 reporter suppression in cells – counter-screen, dose response (AID 504313).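 Note: CHO cells carrying an XBP1 reporter stimulated with tunicamycin; potency is for inhibition of the tunicamycin-induced reporter signal.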 The following applies: XBP1 reporter cell assay, percent of control. For orientation: Counterscreens check selectivity or assay interference.
Take `CCCCCCNC(=O)CC(c1ccccc1)c1cc(Br)ccc1O` (configuration not stated): the IC50 entry is “inactive”. In the case of `C=CCc1cccc(/C=N/NC(=O)CCCNc2ccc(C)cc2)c1O`, the IC50 result was “inactive”. On to `Cc1cccc(C)c1N1CCN(c2ccc3nnc(C(F)(F)F)n3n2)CC1`, for which the IC50 was > 10 µM (inactive). For `COc1cc(N(C(=O)Cc2cccs2)C(C(=O)NC2CCCCC2)c2ccc(C)cc2)ccc1-n1cnnn1` (configuration not stated), the IC50 is > 10 µM (inactive). With `Oc1ccc(/C=N/N2CCN(C3c4ccccc4-c4ccccc43)CC2)c(O)c1` the figure was > 10 µM (inactive); with `COc1ccc(C(=O)Nc2nnc(-c3ccco3)s2)cc1`, “inactive”. In the case of `C/C(=C\c1ccco1)C1C(C#N)=C(N)Oc2n[nH]c(-c3ccc(C)cc3)c21` (configuration not stated), the IC50 was > 10 µM (inactive). As for `Nc1c(S(=O)(=O)c2ccccc2)c2nc3ccccc3nc2n1/N=C/c1cccc(O)c1`, the IC50 was > 10 µM (inactive).

As for `O=C(OCn1ncc(Cl)c(Cl)c1=O)c1cccc(C(F)(F)F)c1`, the IC50 result is “inactive”. Next, `O=C(N/N=C/c1ccc(F)cc1)c1c(O)c2ccccc2[nH]c1=O`: > 10 µM (inactive); `COc1ccccc1-c1nnc(NC(=O)c2ccc(S(=O)(=O)N(C)Cc3ccccc3)cc2)o1`: “inactive”; `CCc1ccc2c(c1)C(c1ccc([N+](=O)[O-])cc1)=NNC(c1ccc(C)cc1)=N2`: > 10 µM (inactive).

Regarding `O=C1C(Cl)=C(Nc2ccccc2)C(=O)c2ccccc21`, the IC50 entry is “inactive”. With `COc1cc(OC)nc(-n2ncc(Br)c(Br)c2=O)n1` the figure was 1.99 µM; with `CCCCCCN1C=CC(=C2C(=O)c3ccccc3C2=O)C=C1`, “inactive”. On to `CC1=C(C)/C(=N\OS(=O)(=O)c2ccccc2)C=CC1=O`, for which the IC50 was 2.89 µM. Consider `Cc1ccc2[nH]c(O)c(N=NC(=O)CCc3ccccc3)c2c1Br`, for which the IC50 result was “inactive”.

As to `CC(C)(C)OC(=O)NCCc1nnc(S(=O)(=O)Cc2ccc(Cl)cc2Cl)o1`, the IC50 was 4.44 µM. `O=C(Cc1ccccc1)NC(=S)Nc1cccc(C(F)(F)F)c1`: the IC50 result is “inactive”. With `O=C(CCl)N1CCN2C(=O)c3ccccc3C12c1ccc(Cl)cc1` (configuration not stated) the entry was “inactive”; with `Cc1cccc(OCC(=O)N/N=C\C=C\c2ccc3c(c2)OCO3)c1C`, > 10 µM (inactive).

For `CCCCCc1c(C)nc(NCc2ccccc2)[nH]c1=O`, the IC50 is > 10 µM (inactive). With `COc1ccc(C2CC(c3c(-c4ccccc4)c4cc(Cl)ccc4[nH]c3=O)=NN2S(C)(=O)=O)cc1OC` (configuration not stated), the IC50 entry was “inactive”. For the compound `C=CCn1c(CCc2cc(C(C)(C)C)c(O)c(C(C)(C)C)c2)n[nH]c1=S`, the IC50 result is “inactive”. For `S=C(Nc1ccccc1)Nc1ccc(OCc2ccc(Cl)cc2Cl)cc1`, the IC50 was 0.19 µM. `CC(C)C[C@H](NC(=O)c1nc[nH]c1C(=O)NCC(=O)OC(C)(C)C)C(=O)OCc1ccccc1`: the IC50 result was “inactive”. As for `O=[N+]([O-])c1c(NCCCO)cc(Sc2nc3ccccc3s2)c2nonc12`, the IC50 entry is “inactive”.

In the case of `O=c1[nH]c(=O)n(Cc2ccco2)c2c1C(C(F)(F)F)(C(F)(F)F)N=C(c1ccc(F)cc1)N2`, the IC50 was > 10 µM (inactive).

As for `NC(=O)CC(NC(=O)Cc1cccc2ccccc12)c1ccc(NCc2ccccc2)c([N+](=O)[O-])c1` (configuration not stated), the IC50 is > 10 µM (inactive). Next, `Cc1cc(Br)c2c(c1)/C(=C/C(=O)c1cccs1)C(=O)N2`: > 10 µM (inactive); `CCCCn1c(N2CCC(Cc3ccccc3)CC2)nc2c1c(=O)[nH]c(=O)n2C`: > 10 µM (inactive); `COc1cc(NC(=O)COc2ccccc2[N+](=O)[O-])ccc1NC(=O)c1cccs1`: > 10 µM (inactive). Turning to `Nc1ccc(SC(F)(F)F)cc1C(=O)c1ccccc1`, the IC50 entry is “inactive”. As for `CC(C)Cn1c(N)c(C(=O)COC(=O)C2CCCCC2)c(=O)n(C)c1=O`, the IC50 was > 10 µM (inactive). With `Cc1ccc(-c2[nH]ncc2/C=N/n2c(COc3ccccc3)nc3ccccc3c2=O)cc1` the entry was “inactive”; with `C=C(C)COc1ccc(-c2n[nH]c(C)c2-c2ccc(Br)cc2)c(O)c1`, “inactive”. As for `COc1cc(OC)cc(-c2nc3ccccc3c(=O)n2OC(=O)c2ccc(Br)cc2)c1`, the IC50 was > 10 µM (inactive). Take `COc1cc([C@@H]2c3cc4c(cc3[C@@H](O)[C@@H](CO)[C@@H]2CO)OCO4)cc(OC)c1O[Si](C)(C)C(C)(C)C`: the IC50 entry is “inactive”. As to `Cc1ccccc1N1CCN(C(=O)c2ccc(Oc3ccc(C(F)(F)F)cn3)cc2)CC1`, the IC50 is 2.48 µM. Next, `Cc1nc(COC(=O)c2cc(O)c3ccccc3c2O)cs1`: > 10 µM (inactive); `O=C(Nc1ccccc1NC(=O)NC1CCCCC1)NC1CCCCC1`: “inactive”; `O=C(Nc1cccc(F)c1)N(Cc1ccc(Cl)cc1)CC(O)C(F)(F)F` (configuration not stated): “inactive”.

Consider `O=C(COc1ccc(Cl)cc1Cl)Nc1ccccn1`, for which the IC50 entry is “inactive”.

On to `Cc1cccc(/C=N/Nc2ccc3ccccc3n2)c1`, for which the IC50 result was “inactive”. On to `Cc1ccccc1CS(=O)(=O)c1nnc([C@H](CC(C)C)NC(=O)OC(C)(C)C)o1`, for which the IC50 result is “inactive”. Consider `OC(CNCCc1ccc(C(F)(F)F)cc1)COc1ccc2ccccc2c1` (configuration not stated), for which the IC50 result is “inactive”. With `COc1cc(-c2nc3ccc4ccccc4c3c3c2CCC3)cc(OC)c1O` the entry was “inactive”; with `CCCCC(CC)Cn1c(N)c(C#N)c2nc3ccccc3nc21` (configuration not stated), “inactive”. As to `O=C(N=Nc1c(O)n(Cc2ccccc2)c2ccccc12)c1cc2ccccc2cc1O`, the IC50 entry was “inactive”. In the case of `OC(COCC(F)(F)C(F)(F)C(F)(F)C(F)F)Cn1c2ccccc2c2ccccc21` (configuration not stated), the IC50 entry was “inactive”. Regarding `Cc1ccc(NP(=O)(Oc2ccccc2F)Oc2ccccc2F)cc1`, the IC50 entry is “inactive”. On to `Cc1ccc(S(=O)(=O)CC#CCOC(=O)c2ccc([N+](=O)[O-])cc2)cc1`, for which the IC50 entry is “inactive”.

Consider `Nc1c(C(=O)Nc2nc3ccccc3s2)sc2nc(-c3cccs3)ccc12`, for which the IC50 entry is “inactive”. Next, `Cc1nc2c(=O)n(C)c(=O)n(C)c2nc1Cl`: “inactive”. With `CCOc1cc(/C=N\NC(=O)Cc2ccccc2)ccc1OCC(=O)Nc1ccc(C)c(C)c1` the entry was “inactive”; with `O=C1c2ccc3c4c(ccc(c24)C(=O)N1c1cccc(O)c1)C(=O)N(c1cccc(O)c1)C3=O`, “inactive”. With `CN1CCN(c2ccc(-c3ccc4ccccc4n3)cc2)CC1` the figure was < 0.16 µM (inactive); with `Cc1ccc(CNCC(O)(c2ccccc2)c2ccc(Cl)cc2)cc1` (configuration not stated), “inactive”. With `Cc1nc(SCC(=O)Nc2cc(C)on2)c2c3c(sc2n1)CCCC3`, the IC50 was > 10 µM (inactive). Take `CC[C@@H](C)[C@H](NC(=O)OC(C)(C)C)c1nnc(S(=O)(=O)Cc2cc(C)ccc2C)o1`: the IC50 was 3.76 µM. Next, `CCOC(=O)c1c(/N=C/c2c(O)n(-c3cccc(C)c3)c(=O)[nH]c2=O)sc2c1CCCC2`: 0.53 µM; `Cc1ccc(C)c(OCc2ccc(C(=O)N3N=C(C(F)F)CC3(O)C(F)F)o2)c1` (configuration not stated): “inactive”.

On to `Cc1cccc(NC(=O)CSc2nc(C)c(CC(=O)c3ccc(Br)cc3)c(C)c2C#N)c1C`, for which the IC50 result was “inactive”.

Consider `O=[N+]([O-])c1cc(S(=O)(=O)C(F)(F)F)ccc1Sc1nc2ccccc2[nH]1`, for which the IC50 result is “inactive”. On to `Cc1cccc(N2CCN(C(=O)CS(=O)(=O)Cc3nc(-c4ccccc4F)oc3C)CC2C)c1` (configuration not stated), for which the IC50 was > 10 µM (inactive). For the compound `Cc1ccc(NN2C(=O)C=C(c3ccc(Cl)cc3)C2=O)cc1`, the IC50 entry is “inactive”. Next, `O=C(CSc1ncnc2[nH]ncc12)Nc1nc(-c2ccc(F)c(F)c2)cs1`: > 10 µM (inactive); `O=S(=O)(N/N=C/c1ccc(Cl)cc1)c1ccc(Cc2ncc(C(F)(F)F)cc2Cl)s1`: “inactive”.

In the case of `COc1ccc2c(C)nc(Nc3nc(C)c(C)c(=O)[nH]3)nc2c1`, the IC50 is below 0.16 µM. With `CCCCn1c(NS(=O)(=O)c2ccc(C)cc2)c(S(=O)(=O)c2ccccc2)c2nc3ccccc3nc21` the figure was > 10 µM (inactive); with `CC(C)(C)c1cc(S(=O)(=O)CCc2ccccn2)cc(C(C)(C)C)c1F`, “inactive”. Turning to `O=S1(=O)C=C(Sc2nc3cc(Cl)ccc3o2)c2ccccc21`, the IC50 is 4.42 µM.

With `COC(=O)CN1C(=S)N(Cc2ccccc2)C(=O)C1CC(=O)Nc1ccc(Br)cc1` (configuration not stated), the IC50 is 5.87 µM. With `CSc1nc2c(cnn2-c2ccc(C)c(C)c2)c(=O)[nH]1`, the IC50 was > 10 µM (inactive). Next, `OC(CNCC1CCCO1)Cn1c2ccc(Br)cc2c2cc(Br)ccc21` (configuration not stated): > 10 µM (inactive). For the compound `CC(C)COc1ccc(/C(=N/O)c2ccccc2)cc1`, the IC50 entry is “inactive”. Take `O=C(N/N=C/c1cccc(F)c1)c1c(O)c2ccccc2[nH]c1=O`: the IC50 entry was “inactive”. In the case of `Cc1nc(NC(=O)CSc2nc3cccnc3n2Cc2ccccc2)sc1C`, the IC50 was > 10 µM (inactive).

`COc1cc(/C=C(\C#N)c2nc3ccccc3[nH]2)cc(Br)c1OCc1ccc(F)cc1`: the IC50 entry is “inactive”. With `O=c1c(Cl)c(Cl)cnn1-c1ccccc1`, the IC50 entry was “inactive”. Next, `C=CCOC(=O)C1=C(C)NC(C)=C(C(=O)OCC=C)C1/C=C/c1ccccc1`: “inactive”. On to `O=c1oc2ccccc2c(Cl)c1CN1CCCCC1`, for which the IC50 result is “inactive”. Regarding `O=C(On1c(-c2ccccc2)nc2ccccc2c1=O)c1ccco1`, the IC50 was > 10 µM (inactive). With `CC1CCCC(NCC(O)COC(c2ccc(F)cc2)c2ccc(F)cc2)C1C` (configuration not stated) the entry was “inactive”; with `Cc1ccc(C(=O)N/C(=C\c2ccc(Br)cc2)c2nc(=S)[nH][nH]2)cc1`, > 10 µM (inactive). On to `CC1=CCC[C@@H]2[C@@](C)(CC/C(C)=C/C(=O)O)[C@H](C)CC[C@@]12C`, for which the IC50 was > 10 µM (inactive). Next, `CCCCc1ccc(Nc2nc(CCC)cc(=O)[nH]2)cc1`: 2.24 µM.

The record behind these values is PubChem BioAssay AID504313 (Emory University Molecular Libraries Screening Center, 2011).
